The values below come from patent US20250177383A1, “DI-CYCLOPROPYL BASED IL-17A MODULATORS AND USES THEREOF” (DICE ALPHA, INC., priority 2022, published 2025).

Like-named read-outs stand apart in the source and are kept apart here.

Test [1] has as its target T1, IL-17A/F (Homo sapiens, UniProt Q16552+Q96PD4).
T1 sequence (Q16552 24-155): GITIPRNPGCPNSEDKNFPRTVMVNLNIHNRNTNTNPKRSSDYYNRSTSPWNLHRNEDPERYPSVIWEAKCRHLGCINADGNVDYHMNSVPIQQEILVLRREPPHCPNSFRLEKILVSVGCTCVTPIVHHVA
T1 sequence (Q96PD4 31-163): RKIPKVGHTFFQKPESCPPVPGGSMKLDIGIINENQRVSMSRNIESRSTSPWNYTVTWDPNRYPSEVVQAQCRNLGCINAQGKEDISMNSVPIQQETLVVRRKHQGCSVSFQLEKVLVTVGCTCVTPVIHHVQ
Nature of the test: IL-17A/F HEK-Blue Cell Assay. The class given is cell-based. The conditions noted are these: HEK-Blue IL-17 reporter cells, IL-17A/F stimulation, 20 hours, SEAP readout; for IC50: read-out: IL17AF HEK Blue pIC50 (converted). The protocol: (§1) The HEK-Blue IL-17 reporter cell line (Fisher #NC1408637) was used for cell-based IL-17A/F inhibition assays. Cells were grown and prepared for assays according to the manufacturer's instructions. This cell line consists of HEK 293 cells that were designed to expressed IL-17RA, IL-17R^C, and the ActI adapter molecule, the combination of which, when stimulated by IL-17A/A activates a NFκB promoter and drives expression of a recombinant Secreted Alkaline Phosphatase (SEAP) geneprotein. Media from the cells is then added to a development reagent (Quanti-Blue Substrate, Fisher #NC9711613), and read at A630.
Compounds were titrated in DMSO and added to the cells immediately before adding IL-17A/A (Custom from R&D systems, untagged IL-17A/F+BSA as a carrier protein). The cells, compound, and IL-17A/A were then incubated for 20 hours before media was removed for SEAP analysis. The resulting inhibition curve was then analyzed using a Dotmatics screening protocol, and IC50 values were determined using a 4-parameter nonlinear fit. DMSO was added to a universal final concentration of 0.1% to optimize background.

The target in test [2] is T2, IL-17A/A (Homo sapiens, UniProt Q16552).
T2 sequence (Q16552 24-155): T1 sequence (Q16552 24-155)
Nature of the test: IL-17A/A HEK-Blue Cell Assay. The format is cell-based. The conditions noted are these: IL-17A/A stimulation, 20 hours, SEAP readout. The protocol: as §1, with “IL-17A/A” for “IL-17A/F”, “IL-17R^A,” for “IL-17RA,”, “protein.” for “geneprotein.”
Compounds were titrated in DMSO, with a top final compound concentration of 10 uM and added to the cells immediately before adding IL-17A/A (Genscript #Z03228). The cells, compound, and IL-17A/A were then incubated for 20 hours before media was removed for SEAP analysis. The resulting inhibition curve was then analyzed using a Dotmatics screening protocol, and IC50 values were determined using a 4-parameter nonlinear fit. DMSO was added to a universal final concentration of 0.1% to optimize background. IL-17A/A inhibition data is provided in Table 1 for selected compounds.

Where [3] appears, read: HEK-Blue IL-17 reporter cells, read-out: IL17 AA HEK-5 pIC50 (converted).

As for `CCn1nccc1C(=O)N[C@H](C(=O)Nc1ccc([C@H](C)[C@@H](NC(=O)[C@H](C)OC)C(=O)N2CCN(C)C(CF)C2)cc1F)C(C1CC1)C1CC1` (single isomer, unassigned) [Compound 299], the IC50 in test [1] is 10 to 100 nM; in test [2] (setting [3]), < 10 nM. The like results for `CO[C@@H](C)C(=O)N[C@@H](C(=O)N1CCNC(CF)C1)[C@@H](C)c1ccc(NC(=O)[C@@H](NC(=O)C2(F)CC2)C(C2CC2)C2CC2)c(F)c1` (single isomer, unassigned) [Compound 301] were, in that order, 100 to 10000 nM and 10 to 100 nM. Turning to `CCc1nonc1C(=O)N[C@H](C(=O)Nc1ccc([C@H](C)[C@@H](NC(=O)CF)C(=O)N2CCNC(CF)C2)cc1F)C(C1CC1)C1CC1` (single isomer, unassigned) [Compound 302], the IC50 is 100 to 10000 nM in test [1] and 10 to 100 nM in test [2] (IL17 AA HEK-5 pIC50, HEK-Blue IL-17 reporter cells).

For the molecule `CCn1nccc1C(=O)N[C@H](C(=O)Nc1ccc([C@H](C)[C@@H](NC(=O)[C@@H](C)F)C(=O)N2CCNC(CF)C2)cc1F)C(C1CC1)C1CC1` (single isomer, unassigned) [Compound 303], the IC50 in test [1] is 100 to 10000 nM; in test [2] (setting [3]) it was 10 to 100 nM.

In the case of `CCC(=O)N[C@@H](C(=O)N1CCNC(CF)C1)[C@@H](C)c1ccc(NC(=O)[C@@H](NC(=O)c2nonc2CC)C(C2CC2)C2CC2)c(F)c1` (single isomer, unassigned) [Compound 304], the IC50 in test [1] is 100 to 10000 nM; in test [2] (setting [3]), < 10 nM. With `CCn1nccc1C(=O)N[C@H](C(=O)Nc1ccc([C@H](C)[C@@H](NC(=O)C(C)C2CC2)C(=O)N2CCN(C)[C@H](C)C2)cc1F)C(C1CC1)C1CC1` (single isomer, unassigned) [Compound 309], the IC50 in test [1] and in test [2] (setting [3]) was < 10 nM throughout. For `CCn1nccc1C(=O)N[C@H](C(=O)Nc1ccc([C@H](C)[C@@H](NC(=O)C(C)C2CC2)C(=O)N2CCN(C)[C@H](C)C2)cc1F)C(C1CC1)C1CC1` (single isomer, unassigned) [Compound 310], in test [1], the IC50 is 10 to 100 nM. For the same molecule, the “IL17 AA HEK-5 pIC50” value in test [2] (HEK-Blue IL-17 reporter cells) is reported as “A (pIC50 of greater than or equal 8 as A)”. For `CCn1nccc1C(=O)N[C@H](C(=O)Nc1ccc([C@H](C)[C@@H](NC(=O)C(C)OCCOC)C(=O)N2CCN(C)[C@H](C)C2)cc1F)C(C1CC1)C1CC1` (single isomer, unassigned) [Compound 311], the IC50 was 100 to 10000 nM in test [1] and 10 to 100 nM in test [2] (setting [3]).

`CCn1nccc1C(=O)N[C@H](C(=O)Nc1ccc([C@H](C)[C@@H](NC(=O)C(C)OCCOC)C(=O)N2CCN(C)CC2)cc1F)C(C1CC1)C1CC1` (single isomer, unassigned) [Compound 314]: the IC50 in test [1] and in test [2] (setting [3]) was 100 to 10000 nM each time. Regarding `CCn1nccc1C(=O)N[C@H](C(=O)Nc1ccc([C@H](C)[C@@H](NC(=O)C(C)OCCOC)C(=O)N2CCN(C)CC2)cc1F)C(C1CC1)C1CC1` (single isomer, unassigned) [Compound 315], in test [1], the “IL17AF HEK Blue pIC50” value is “C (7>C≥5)”. In addition, the IC50 in test [2] (setting [3]) is 10 to 100 nM. For the molecule `CCn1nccc1C(=O)N[C@H](C(=O)Nc1ccc([C@H](C)[C@@H](NC(=O)C(C)C2CC2)C(=O)N2CCN(C)CC2)cc1F)C(C1CC1)C1CC1` (single isomer, unassigned) [Compound 317], the IC50 was 10 to 100 nM in test [1] and < 10 nM in test [2] (setting [3]). The like results for `CCOC(C)C(=O)N[C@@H](C(=O)N1CCN(C)[C@H](C)C1)[C@@H](C)c1ccc(NC(=O)[C@@H](NC(=O)c2ccnn2CC)C(C2CC2)C2CC2)c(F)c1` (single isomer, unassigned) [Compound 320] were, in that order, 100 to 10000 nM and 10 to 100 nM. The like results for `CCOC(C)C(=O)N[C@@H](C(=O)N1CCN(C)[C@H](C)C1)[C@@H](C)c1ccc(NC(=O)[C@@H](NC(=O)C2(F)CC2)C(C2CC2)C2CC2)c(F)c1` (single isomer, unassigned) [Compound 321] were, in that order, 100 to 10000 nM and 10 to 100 nM. Regarding `CCOC(C)C(=O)N[C@@H](C(=O)N1CCN(C)[C@H](C)C1)[C@@H](C)c1ccc(NC(=O)[C@@H](NC(=O)C2(F)CC2)C(C2CC2)C2CC2)c(F)c1` (single isomer, unassigned) [Compound 322], the “IL17AF HEK Blue pIC50” value in test [1] was “C (7>C≥5)”. Also, in test [2] (setting [3]), the IC50 is < 10 nM. On to `CCOC(C)C(=O)N[C@@H](C(=O)N1CCN(C)[C@H](C)C1)[C@@H](C)c1ccc(NC(=O)[C@@H](NC(=O)c2ccnn2CC)C(C2CC2)C2CC2)c(F)c1` (single isomer, unassigned) [Compound 323], for which the IC50 in test [1] is 10 to 100 nM; in test [2] (setting [3]), < 10 nM. For `CCn1nccc1C(=O)N[C@H](C(=O)Nc1ccc([C@H](C)[C@@H](NC(=O)C(C)CC(F)(F)F)C(=O)N2CCN(C)[C@H](C)C2)cc1F)C(C1CC1)C1CC1` (single isomer, unassigned) [Compound 324], in that order: 10 to 100 nM and < 10 nM. The like results for `CCn1nccc1C(=O)N[C@H](C(=O)Nc1ccc([C@H](C)[C@@H](NC(=O)C(C)C(F)(F)F)C(=O)N2CCN(C)[C@H](C)C2)cc1F)C(C1CC1)C1CC1` (single isomer, unassigned) [Compound 326] were, in that order, 100 to 10000 nM and 10 to 100 nM. The like results for `CCOC(C)C(=O)N[C@@H](C(=O)N1CCN(C)CC1)[C@@H](C)c1ccc(NC(=O)[C@@H](NC(=O)c2ccnn2CC)C(C2CC2)C2CC2)c(F)c1` (single isomer, unassigned) [Compound 328] were, in that order, 10 to 100 nM and < 10 nM. For the molecule `CO[C@@H](C)C(=O)N[C@@H](C(=O)N1CCN(C)[C@H](C)C1)[C@@H](C)c1ccc(NC(=O)[C@@H](NC(=O)c2ccnn2C(C)C)C(C2CC2)C2CC2)c(F)c1` [Compound 260], the IC50 in test [2] (setting [3]) is < 10 nM. The same measure, in the same setting: with `CO[C@@H](C)C(=O)N[C@@H](C(=O)N1C[C@H]2CC[C@@H](C1)N2C)[C@@H](C)c1ccc(NC(=O)[C@@H](NC(=O)c2ccnn2C(C)C)C(C2CC2)C2CC2)c(F)c1` [Compound 261] the figure was < 10 nM.

As for `CO[C@@H](C)C(=O)N[C@@H](C(=O)N1CC[C@H](N(C)C)C1)[C@@H](C)c1ccc(NC(=O)[C@@H](NC(=O)c2ccnn2C(C)C)C(C2CC2)C2CC2)c(F)c1` [Compound 262], in test [2] (setting [3]), the IC50 was < 10 nM.

Consider `CO[C@@H](C)C(=O)N[C@@H](C(=O)N1C[C@H]2C[C@@H]1CN2C)[C@@H](C)c1ccc(NC(=O)[C@@H](NC(=O)c2ccnn2C(C)C)C(C2CC2)C2CC2)c(F)c1` [Compound 263], for which the IC50 in test [2] (setting [3]) was 10 to 100 nM.

Regarding `CCC(=O)N[C@@H](C(=O)N1C[C@H]2CC[C@@H](C1)N2C)[C@@H](C)c1ccc(NC(=O)[C@@H](NC(=O)c2ccnn2C(C)C)C(C2CC2)C2CC2)c(F)c1` [Compound 264], the IC50 in test [2] (setting [3]) is < 10 nM. Still for that read-out and setting: with `CCC(=O)N[C@@H](C(=O)N1CC[C@H](N(C)C)C1)[C@@H](C)c1ccc(NC(=O)[C@@H](NC(=O)c2ccnn2C(C)C)C(C2CC2)C2CC2)c(F)c1` [Compound 265] the figure was < 10 nM; with `CCC(=O)N[C@@H](C(=O)N1C[C@H]2C[C@@H]1CN2C)[C@@H](C)c1ccc(NC(=O)[C@@H](NC(=O)c2ccnn2C(C)C)C(C2CC2)C2CC2)c(F)c1` [Compound 266], 10 to 100 nM. Still for that read-out and setting: as for `CCC(=O)N[C@@H](C(=O)N1CCC[C@@H](N)C1)[C@@H](C)c1ccc(NC(=O)[C@@H](NC(=O)c2ccnn2CC)C(C2CC2)C2CC2)c(F)c1` [Compound 268], the figure is 10 to 100 nM. Same read-out and setting: with `CO[C@@H](C)C(=O)N[C@@H](C(=O)N1CCN(C)CC1)[C@@H](C)c1ccc(NC(=O)[C@@H](NC(=O)C2(F)CC2)C(C2CC2)C2CC2)c(F)c1` [Compound 272] the figure was 10 to 100 nM; with `CCOC(=O)N1CC[C@H]1C(=O)N[C@@H](C(=O)N1CCN(C)CC1)[C@@H](C)c1ccc(NC(=O)[C@@H](NC(=O)C2(F)CC2)C(C2CC2)C2CC2)c(F)c1` [Compound 274], 10 to 100 nM.
